Laboratory results published in patent publication US7601683B2, “Protein conformational isomers, methods of making, methods for using, compositions comprising and products made therewith” (Board of Regents of the University of Texas System, priority 2001, dated 2009).
Read-outs that look alike come from different tables or passages of the source.

Biological target: tick anticoagulant peptide (TAP) (Ornithodoros moubata, UniProt P17726)
Sequence (P17726 whole entry): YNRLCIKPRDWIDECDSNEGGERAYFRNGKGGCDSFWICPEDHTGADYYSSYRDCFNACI

Compound: [Cl-].[Na+] [NaCl]
- reduction of the extent of denaturation of TAP by 8M urea (in the presence of 0.5 M NaCl): 23%
- reduction of the extent of denaturation of TAP by 8M urea (in the presence of 1M NaCl): 50%
- reversal of the structure of denatured TAP (in the presence of urea, after addition of the protein stabilizer (FIG. 7 column 3)): converts back to the native structure
